The values below are quoted from earlier work in patent US20020141964A1, “Composition for arresting the flow of blood and method” (priority 2001, published 2002).

This data set deals with blood flowing from an open wound. The settings on record: shown in the earlier U.S. patent of the co-inventors.

Take potassium ferrate: the “accelerated clotting of blood flowing from an open wound” value is reported as “effectively accomplishes the accelerated clotting of blood”.
